Earlier results, collected in US20050244367A1 (priority 2004, published 2005).

tested on: PLA2; settings: art-known PLA2 inhibitor classes, order of magnitude given in words

Structure (SMILES) | IC50
O=C(O)CC[C@@H](CSc1ccc(Cc2ccccc2)cc1)NC(=O)CCCCCCc1ccccc1 | sub μM range
CC(C)c1ccc2c(c1)CCC1C(C)(CNCCC(N)c3ccc(F)cc3)CCCC21C (stereo not shown) | μM range
CCc1c(CC(N)=O)c2cc(OCCCP(=O)(O)O)ccc2n1Cc1ccccc1 | sub μM range
CCC(CCCCSc1ccc(C)cc1)c1ccc(F)cc1 (stereo not shown) | μM range
CCN(CC)CCN(Cc1ccc(-c2ccc(C(F)(F)F)cc2)cc1)C(=O)Cn1cc(Cc2ccn(C)n2)c(=O)nc1SCc1ccc(F)cc1 | nM or subnM range
COC1=CCC2=C(CCC3C2CC[C@@]2(C)C3CC[C@@H]2N(C)CCCN(C)C)C1 (stereo partly shown) | sub μM range
CC(C)c1ccc2c(c1)CCC1C(C)(CNCCC(=O)c3ccc(F)cc3)CCCC21C (stereo not shown) | μM range
